Measurements as given in patent publication US11213508B2, “Compositions comprising urolithins and uses thereof for the stimulation of insulin secretion” (Centre National de la Recherche Scientifique (CNRS), priority 2013, dated 2022).
“And” between values parts separate entries of the source, which are not always exact repeats. Identical values can stand only once.

Assays:
[1] = system: INS-1 insulin-secreting β-cells; experiment: Glucose (8.3 mmol·L^−1)-stimulated insulin secretion in INS-1 cells (HTRF insulin assay); assay type: cell-based; conditions: 8.3 mmol·L^−1 glucose; for activity at 2 µM / activity at 20 µM: Rattus norvegicus, INS1, 1 h, read-out: % control response (glucose-stimulated insulin secretion); for activity at 2 µM / activity at 20 µM / % control response (glucose-stimulated insulin secretion): control = glucose alone
Method: Cells were seeded in 24-well plates (4×10^5 cells per well) and were used for experiments after 5 days of culture.
(§1) Cells were incubated for 1 h (5% CO2, 37° C.) in KRB medium containing 8.3 mmol·L^−1 glucose (glucose-stimulated secretion) in the presence or absence of the compounds tested. At the end of the 1 h incubation period, the medium was sampled and stored at −20° C. until the insulin assay. Insulin concentration in cell supernatants was determined using the homogeneous time resolved fluorescence technology (HTRF), according to the manufacturer's instructions (HTRF insulin assay kit, Cisbio International, Bagnols-sur-Ceze, France). Briefly, two anti-insulin antibodies were used; one labelled with Eu^3+-Cryptate and one labelled with XL665 recognizing distinct epitopes. When these two fluorophores bind to insulin molecules, the two antibodies come into close proximity, allowing fluorescence resonance energy transfer (FRET) to occur between the Eu^3+-Cryptate and the XL665. This FRET increases proportionally with the insulin concentrations. All the experiments were performed at least in quadruplicate.
For the determination of insulin secretion, cells were incubated for 1 h (5% CO2, 37° C.) in KRB medium containing either 1.4 mmol·L^−1 glucose (low-glucose) or 8.3 mmol·L^−1 glucose (glucose-stimulated secretion) in the presence or absence of the compounds tested. At the end of the 1 h incubation period, mediums were sampled and stored at −20° C. until the insulin assay.

[2] = system: INS-1 insulin-secreting β-cells; conditions: Youl et al., 2010; cited from earlier work
[3] = system: INS-1 insulin-secreting β-cells; experiment: Glibenclamide-stimulated insulin secretion in INS-1 cells; assay type: cell-based; conditions: glibenclamide 0.01 μmol·L^−1
Method: The insulin-secreting cell line INS-1 (a gift from Professor C. B. Wollheim) was cultured in RPMI-1640, supplemented with 10% fetal calf serum (FCS), 100 U·mL^−1 penicillin, 100 μg·mL^−1 streptomycin, 2 mmol·L^−1 L-glutamine, 10 mmol·L^−1 HEPES, 1 mmol·L^−1 sodium pyruvate, and […] 2-mercaptoethanol, as previously described by Youl et al. (2010). Cells were seeded in 24-well plates (4×10^5 cells per well) and were used for experiments after 5 days of culture.
as §1, with “Before the treatment, RPMI medium was removed and the cells were washed twice with HEPES-balanced Krebs-Ringer bicarbonate buffer (KRB) containing (in mmol·L^−1): 123 NaCl, 5.4 KCl, 1.3 KH2PO4, 2.7 MgSO4, 2.9 CaCl2, 5 NaHCO3 and 20 HEPES, pH 7.5, with 2 g·L^−1 bovine serum albumin (KRB/BSA). Cells” for “Cells”
Material and methods were the same as described in example 1. For the determination of insulin secretion, cells were incubated for 1 h (5% CO2, 37° C.) in KRB medium containing 1.4 mmol·L^−1 glucose (low-glucose condition) and 0.01 μmol·L^−1 glibenclamide (glibenclamide-stimulated secretion), in the presence or absence of urolithins. At the end of the 1 h incubation period, the medium was sampled and stored at −20° C. until the insulin assay. Insulin concentration in cell supernatants was determined as described in Example 1.

With O=C(O)Cc1ccc(O)c(O)c1 [3,4-dihydroxyphenylacetic acid] the activity at 2 µM ([1]; compound 2 μM) was 105% and the activity at 20 µM ([1]; compound 20 μM) was 84%.
In the case of O=C(O)CCc1cccc(O)c1 [3-(3′-hydroxyphenyl)propionic acid], the activity at 2 µM ([1]; compound 2 μM) is reported as 98% and the activity at 20 µM ([1]; compound 20 μM) is reported as 103%.
Work on O=C(O)C(O)Cc1ccc(O)cc1 (stereo not drawn) [3-(4′-hydroxyphenyl)lactic acid] yielded an activity at 2 µM ([1]; compound 2 μM) of 97% and an activity at 20 µM ([1]; compound 20 μM) of 79%.
With COc1cc(C(=O)O)cc(O)c1O [3-O-Methylgallic acid] the activity at 2 µM ([1]; compound 2 μM) was 93% and the activity at 20 µM ([1]; compound 20 μM) was 105%.
O=C(O)Cc1cccc(O)c1 [3-hydroxyphenylacetic acid] showed an activity at 2 µM ([1]; compound 2 μM) of 98% and an activity at 20 µM ([1]; compound 20 μM) of 104%.
Work on COc1c(O)cc(C(=O)O)cc1O [4-O-Methylgallic acid] yielded an activity at 2 µM ([1]; compound 2 μM) of 104% and an activity at 20 µM ([1]; compound 20 μM) of 86%.
Compound O=C(O)c1ccc(O)cc1 [4-hydroxybenzoic acid] has an activity at 2 µM ([1]; compound 2 μM) of 96% and an activity at 20 µM ([1]; compound 20 μM) of 98%.
With O=C(O)CNC(=O)c1ccc(O)cc1 [4′-hydroxyhippuric acid] the “% control response (glucose-stimulated insulin secretion)” value (shortened to “% control response”) ([1]; compound 2 μM) was 98.00% and the “% control response” value ([1]; compound 20 μM) was 111.00%.
For O=C(O)Cc1ccc(O)cc1 [4′-hydroxyphenylacetic acid], the “% control response” value ([1]; compound 2 μM) was 102.00% and 107.00% and the “% control response” value ([1]; compound 20 μM) was 74.00% and 81.00%.
With O=C(O)C(O)c1ccc(O)cc1 (stereo not drawn) [4′hydroxymandelic acid] the “% control response” value ([1]; compound 2 μM) was 103.00% and the “% control response” value ([1]; compound 20 μM) was 86.00%.
O=C(O)/C=C/c1ccc(O)c(O)c1 [Caffeic acid] showed an activity at 2 µM ([1]; compound 2 μM) of 104% and an activity at 20 µM ([1]; compound 20 μM) of 105%.
O=C(O)CCc1ccc(O)c(O)c1 [Dihydrocaffeic acid] showed an activity at 2 µM ([1]; compound 2 μM) of 110% and an activity at 20 µM ([1]; compound 20 μM) of 83%.
Work on COc1cc(CCC(=O)O)ccc1O [Dihydroferulic acid] yielded an activity at 2 µM ([1]; compound 2 μM) of 106% and an activity at 20 µM ([1]; compound 20 μM) of 103%.
With O=c1oc2c(O)c(O)cc3c(=O)oc4c(O)c(O)cc1c4c23 [Ellagic acid, reference compound] the activity at 2 µM ([1]; compound 2 μM) was 93.4%, the activity at 20 µM ([1]; compound 20 μM) was 101% and the “ability to amplify glucose-stimulated insulin secretion” value ([1]; blind screening, 2 and 20 μM) was “not active”.
In the case of COc1cc(/C=C/C(=O)O)ccc1O [Ferulic acid], the activity at 2 µM ([1]; compound 2 μM) is reported as 109% and the activity at 20 µM ([1]; compound 20 μM) is reported as 115%.
For COc1cc(/C=C/C(=O)NCC(=O)O)ccc1O [Feruloylglycine], the activity at 2 µM ([1]; compound 2 μM) was 102% and the activity at 20 µM ([1]; compound 20 μM) was 102%.
COc1cc(CC(=O)O)ccc1O [Homovanillic acid] gave an activity at 2 µM ([1]; compound 2 μM) of 93% and an activity at 20 µM ([1]; compound 20 μM) of 83%.
COc1ccc(/C=C/C(=O)NCC(=O)O)cc1O [Isoferuloylglycine] showed an activity at 2 µM ([1]; compound 2 μM) of 80% and an activity at 20 µM ([1]; compound 20 μM) of 82%.
With O=C(O)[C@H]1O[C@@H](Oc2c(-c3ccc(O)cc3)oc3cc(O)cc(O)c3c2=O)[C@H](O)[C@@H](O)[C@@H]1O [Kaempferol-3 -glucuronide] the “% control response” value ([1]; compound 2 μM) was 111.00% and the “% control response” value ([1]; compound 20 μM) was 104.00%.
For CC(=O)N[C@@H](CS)C(=O)O [N-acetyl cysteine], the “prevention of H2O2-induced insulin secretion impairment” value (from here on “prevention”) [2] is given as “not”.
With Oc1cc(O)cc(O)c1 [Phloroglucinol] the activity at 2 µM ([1]; compound 2 μM) was 100% and the activity at 20 µM ([1]; compound 20 μM) was 105%.
With O=C(O)c1ccc(O)c(O)c1 [Protocatechuic acid] the activity at 2 µM ([1]; compound 2 μM) was 108% and the activity at 20 µM ([1]; compound 20 μM) was 92%.
Oc1ccccc1O [Pyrocatechol] gave an activity at 2 µM ([1]; compound 2 μM) of 87% and an activity at 20 µM ([1]; compound 20 μM) of 96%.
Oc1cccc(O)c1O [Pyrogallol] gave an activity at 2 µM ([1]; compound 2 μM) of 93% and an activity at 20 µM ([1]; compound 20 μM) of 98%.
In the case of O=c1c(O)c(-c2ccc(O)c(O)c2)oc2cc(O)cc(O)c12 [Quercetin, reference compound], the “prevention” value [2] is listed as “able to prevent H2O2-induced insulin secretion impairment”, the activity at 2 µM ([1]; compound 2 μM) is listed as 93.8% and the activity at 20 µM ([1]; compound 20 μM) is listed as 237%.
With O=C(O)[C@H]1O[C@@H](Oc2c(-c3ccc(O)c(O)c3)oc3cc(O)cc(O)c3c2=O)[C@H](O)[C@@H](O)[C@@H]1O [Quercetin-3 -glucuronide] the “% control response” value ([1]; compound 2 μM) was 89.00% and the “% control response” value ([1]; compound 20 μM) was 103.00%.
OCCc1ccc(O)cc1 [Tyrosol] gave an activity at 2 µM ([1]; compound 2 μM) of 86% and an activity at 20 µM ([1]; compound 20 μM) of 89%.
In the case of COc1ccc(Cl)cc1C(=O)NCCc1ccc(S(=O)(=O)NC(=O)NC2CCCCC2)cc1 [glibenclamide, reference compound], the “increase of secretion as compared to low-glucose condition” value [3] is reported as 4/6.
For Oc1ccc(C=Cc2cc(O)cc(O)c2)cc1 [resveratrol], the “prevention” value [2] is listed as “not”.
